Like-named read-outs stand apart in the source and are kept apart here. Bounds are passed on as bounds.

The text below walks through data of publication PMC10222323, “Novel Biotinylated Cu(II)-Phenanthroline Complexes: 2D and 3D Cytotoxic Activity and Mechanistic Insight” (Molecules, 2023).

The test system of series [1] is PSN-1 (pancreatic) cancer cells. Nature of the series: MTT cytotoxicity test, 72 h, PSN-1. Type of series: cell-based, human. The procedure: (§1) The in vitro anticancer potential of the newly developed complexes and of the ligands has been tested on six different cancer cell lines including PSN-1 (pancreatic), HCT-15 (colorectal with low sensitivity for cisplatin), 2008 (ovarian), A431 (cervical), MDA-MB-231 (breast), and U1285 (lung) cancer cells. For comparison purposes, cisplatin efficacy was assessed under the same experimental conditions.
(§2) Tested compounds were dissolved in DMSO and added to the cell-growth medium to a final solvent concentration of 0.5%, which is well reported to not have cytotoxic effects on cell viability. Cisplatin (Sigma Chemical Co., St. Louis, MO, USA) was dissolved in a physiologic solution (0.9% sodium chloride).
(§3) Human colon (HCT-15), pancreatic (PSN-1), and breast (MDA-MB-231) carcinoma-cell lines were obtained from the American Type Culture Collection (ATCC, Rockville, MD). Human cervical carcinoma (A431) cells were kindly provided by Prof. F. Zunino (Division of Experimental Oncology B, Istituto Nazionale dei Tumori, Milan). Human ovarian carcinoma (2008) cells and their cisplatin-resistant counterpart (C13*) were kindly provided by Prof. G. Marverti (Dipartimento di Scienze Biomediche, Università di Modena University, Italy). Cell lines were cultured in RPMI-1640 or DMEM medium (Euroclone) added with 10% fetal calf serum (Euroclone, Milan, Italy), antibiotics (50 units per mL penicillin, and 50 μg mL^−1 streptomycin), and 2 mM L-glutamine.
(§4) The growth inhibitory effect toward the tumour cell lines was evaluated by the MTT test as previously described.
For orientation: Formazan colour is commonly taken as a measure of viable cells.

The subject of series [2] is MDA-MB-231 (breast) cancer cells. As to the kind of experiment: MTT cytotoxicity test, 72 h, MDA-MB-231. It is filed as cell-based, human. How it is done: as §1, §2, §3, §4
Series [3] concerns U1285 (lung) cancer cells. As to the kind of experiment: MTT cytotoxicity test, 72 h, U1285. It is filed as cell-based, human. The following applies: mean ± S.D., read-out: IC50 U-1285. The procedure: as §1, §2, §4
For series [4], the system named is 2008 (ovarian) cancer cells. As to the kind of experiment: MTT cytotoxicity test, 72 h, 2008. Type of series: cell-based, human. How it is done: as §1
(§5) Table 2 reported the IC50 values of the complexes against two types of ovarian cancer cells, one sensitive (2008) and one resistant to cisplatin (C13*). […] The resistance factor (R.F., the ratio among IC50 values obtained in resistant C13*cells and those calculated in the sensitive 2008 ones) calculated for all tested complexes resulted to be ≤2 (R.F. for cisplatin 11.1), strongly confirming the ability of the complexes to bypass cisplatin resistance.
as §2, §3, §4

In series [5] the test system is A431 (cervical) cancer cells. Nature of the series: MTT cytotoxicity test, 72 h, A431. It is filed as cell-based, human. How it is done: as §1, §2, §3, §4
Series [6] relates to six different cancer cell lines. As to the kind of experiment: MTT cytotoxicity, average over the cancer cell line panel. The following applies: for cytotoxic activity of ligands (in words): compared with the complexes. Type of series: cell-based, human. How it is done:
as §1
Due to note, all the complexes were very effective in the MDA-MB-231 cell line, which overexpress the SMVT (sodium-dependent multivitamin transporter) receptor, which is well known to be involved in the intracellular translocation of biotin [24].
as §4

In series [7] the test system is HCT-15 (colorectal with low sensitivity for cisplatin) cancer cells. As to the kind of experiment: MTT cytotoxicity test, 72 h, HCT-15. Type of series: cell-based, human. The procedure: as §1, §2, §3, §4
The test system of another series is noncancerous CHO cells. As to the kind of experiment: Cytotoxicity against noncancerous CHO cells. Type of series: cell-based. The following applies: for S.I. (selectivity index): average IC50 toward normal cells divided by the average IC50 for the malignant cells; for IC50: noncancerous cells.
From the text: In order to preliminarily assess the possible toxic effect on noncancerous cells, we also evaluated the cytotoxic potential of the newly developed Cu(II) complexes against noncancerous CHO cells (Table 3). For all tested complexes, calculated IC50 values were higher than those obtained (on average) against tumour cells, thus indicating for this class of metal complexes a slightly preferential cytotoxicity against cancer cells, as attested by the calculated selectivity index values (SI = the quotient of the average IC50 toward normal cells divided by the average IC50 for the malignant cells).
as §4

Series [8] relates to C13* ovarian cancer cells (cisplatin-resistant). Nature of the series: MTT cytotoxicity test, 72 h, cisplatin-resistant C13*. The following applies: for R.F. (resistance factor): RF = IC50 resistant (C13*)/IC50 parental cells (2008); for IC50: cisplatin-resistant cells, 72 h, MTT test. It is filed as cell-based, human. How it is done: as §5, §2, §3, §4
In the next series the test system is MDA-MB-231 cells. The conditions noted are these: 24 h, 2 and 3 μM. How it is done:
The ability to enter cancer cells is a very important factor to determine the biological activity of metal-based compounds. Consequently, with the aim of correlating the antiproliferative activity elicited by all the newly developed complexes and their accumulation profiles into cancer cells, the Cu content was evaluated in the SMVT overexpressing MDA-MB-231 cells. Uptake profiles were determined by treating cancer cells for 24 h with two concentrations (2 and 3 μM) of tested complexes.
MDA-MB-231 cells (2.5 × 10^6) were seeded in 75 cm^2 flasks in a growth medium (20 mL). Following 24 h, cells were treated for 24 h with tested complexes and samples processed as previously described.
Figure 2 Cellular uptake of complexes 1–4 in drug-treated MDA-MB-231 human breast cancer cells. Cells were incubated for 24 h with […] of tested complexes. The amount of cellular Cu was estimated by GF-AAS. Error bars are S.D.

For series [9], the system named is DNA. As to the kind of experiment: Ethidium bromide displacement assay. It is filed as binding. The conditions noted are these: EtBr displacement. How it is done: A number of research studies were performed on the elucidation of the mechanism of action of copper complexes in the past three decades. Despite several different molecular targets having been proposed for copper(II) complexes, DNA still represents one of the most substantiated when considering diamine ligands. On this basis, we thought it of interest to evaluate the ability of tested complexes to interact with DNA, both at molecular and cellular levels. An ethidium bromide (EB) displacement assay was used to understand if the complexes interact with the DNA at a molecular level. […] These values are very much in line with what was previously seen by us and also very close to the reported literature values of 2.60 × 10^7 M(bp^−1) and 3.04 × 10^7 M(bp^−1) for the bis complexes of [Cu(phen)2]^2+ and [Cu(DPQ)2]^2+ reported by Molphy et al.. […] It is largely possible that the presence of the 1,10-phenanthroline scaffold on compounds 3 and 4 is contributing to the increased displacement of the EtBr (probably by intercalation) and leading to a more noticeable decrease in the fluorescence.
EtBr displacement assays were performed in 10 mM phosphate buffer solution (pH 7.4) as described by Boger et al. The binding values were calculated using the % relative decrease of fluorescence at 50% and the equation below. (1) EEBEtBr/compound50%FI

The subject of series [10] is DNA. The arrangement: method as in earlier work. The conditions noted are these: reported literature values; ref 26 (Molphy et al.); cited from earlier work.
Series [11] deals with human pancreatic PSN-1 cancer-cell spheroids. Nature of the series: 3D spheroid cytotoxicity, APH assay, 72 h. Type of series: cell-based. The conditions noted are these: 3D spheroids, 72 h, APH test. The procedure:
The cancer spheroids were treated with tested complexes for 72 h, and the cell viability was estimated by means of a modified acid phosphatase (APH) assay.
Spheroid cultures were performed by seeding 2.5 × 10^3 PSN-1 cancer cells/well in spheroid-suitable tissue culture untreated 96-well plates (Greiner Bio-one, Kremsmünster, Austria) in RPMI-1640 cell culture medium without phenol red (Sigma Chemical Co., St. Louis, MO, USA) containing 10% fetal calf serum and supplemented with 20% methyl cellulose stock solution.
An established APH-modified assay was used to detect the cytotoxicity profile in 3D spheroids, as previously described. IC50 values were calculated using a 4-PL model.

The mark [12] stands for this setting: Homo sapiens, Table 1, mean ± S.D.
[13] abbreviates: Table 2, cisplatin-sensitive parental cells.

On to `O=C(CCCC[C@@H]1SC[C@@H]2NC(=O)N[C@@H]21)NN=C1c2cccnc2-c2ncccc21` [A, Biotin-Dafone], for which the IC50 is greater than 50 µM in [1] (Homo sapiens, PSN1, mean ± S.D.); greater than 50 µM in [2] (Homo sapiens, MDA-MB-231, mean ± S.D.); greater than 50 µM in [3] (Homo sapiens); greater than 50 µM in series [4] (setting [12]); greater than 50 µM in series [5] (Homo sapiens, A-431, mean ± S.D.); greater than 50 µM in series [7] (Homo sapiens, HCT-15, mean ± S.D.). Moreover, the “cytotoxic activity of ligands (in words)” value in [6] is listed as “did not show activity comparable to the complexes”.
As for “[Cu(phen)(dafone-biotin)](NO3)2 [Complex 3]”, the IC50 amounted to 0.7 ± 0.2 µM in series [1] (mean ± S.D.); 2.1 ± 0.8 µM in the series with noncancerous CHO cells; 1.4 ± 0.4 µM in [2] (mean ± S.D.); 2.5 ± 0.2 µM in series [8]; 3 ± 0.3 µM in series [3]; 3.3 ± 0.1 µM in [4] (Table 1, mean ± S.D.). Moreover, the 50% inhibitory concentration (IC50) in series [4] (setting [13]) stood at 3.3 ± 0.1 µM; in [5] (mean ± S.D.), 0.9 ± 0.2 µM; in series [7] (mean ± S.D.), 1.8 ± 0.2 µM. Moreover, in the series with noncancerous CHO cells, the “S.I. (selectivity index)” value was 1.1. The “R.F. (resistance factor)” value in [8] was found to be 0.7. The “Cu intracellular content (uptake)” value with MDA-MB-231 cells is “most internalised into cancer cells”. Further, in the series on DNA [9], the “fluorescence quenching (in words)” value is reported as “highest quenching values”. The relative fluorescence decrease result with DNA [9] is “greater than 50%”. In the series on DNA [9] (10 mM phosphate buffer pH 7.4, from 50% fluorescence decrease), the binding constant was 2.53 × 10^7 M(bp^−1).
On to `[Cu+2].c1cnc2c(c1)ccc1cccnc12.c1cnc2c(c1)ccc1cccnc12` [[Cu(phen)2]^2+, copper bis-phenanthroline [Cu(phen)2]^2+], for which, in the series with DNA [10], the “binding constant (literature)” value is 2.60 × 10^7 M(bp^−1).
Consider `c1cc2c3nccnc3c3ccc[n+]4c3c2[n+](c1)[Cu-2]41[n+]2cccc3c4nccnc4c4ccc[n+]1c4c32` [[Cu(DPQ)2]^2+], for which, in the series on DNA [10], the “binding constant (literature)” value was 3.04 × 10^7 M(bp^−1).
As for `N.N.[Cl][Pt][Cl]` [Cisplatin, cisplatin, reference compound], the IC50 in series [1] (mean ± S.D.) was 12.1 ± 2.9 µM; in the series with noncancerous CHO cells, 24.1 ± 3 µM; in series [2] (mean ± S.D.), 30.5 ± 2.6 µM; in series [11] it was 52.6 ± 3.8 µM; in series [8] it was 24.1 ± 3 µM; in [3], 2.1 ± 0.9 µM. Further, the IC50 in [4] (Table 1, mean ± S.D.) was 2.2 ± 1.4 µM; in series [4] (setting [13]), 2.2 ± 1.4 µM; in series [5] (mean ± S.D.), 2.1 ± 0.9 µM; in [7] (mean ± S.D.) it was 13.9 ± 1.7 µM. Besides, the “R.F. (resistance factor)” value in [8] is given as 11.1.
Consider `O=C(CCCC[C@@H]1SC[C@@H]2NC(=O)N[C@@H]21)NN=C1c2ccc[n+]3c2-c2c1ccc[n+]2[Cu-2]3([Cl])[Cl]` [Complex 1, [Cu(dafone-biotin)Cl2]], for which the IC50 in series [1] (mean ± S.D.) was 0.6 ± 0.2 µM; in the series on noncancerous CHO cells it was 13.1 ± 0.9 µM; in series [2] (mean ± S.D.) it was 2.1 ± 0.4 µM; in [8], 2 ± 0.8 µM; in [3], 5.9 ± 0.5 µM; in series [4] (Table 1, mean ± S.D.) it was 4.5 ± 0.6 µM. The IC50 in series [4] (setting [13]) came out at 4.5 ± 0.6 µM; in series [5] (mean ± S.D.) it was 7.2 ± 0.6 µM; in [6] (2D assays, average over the cancer cell lines of Table 1), 3.4 µM; in [7] (mean ± S.D.) it was 0.4 ± 0.1 µM. Moreover, in the series with noncancerous CHO cells, the “S.I. (selectivity index)” value is recorded as 3.9. For the same compound, the “R.F. (resistance factor)” value in [8] came out at 0.4. For the same compound, the “fluorescence quenching (in words)” value in the series with DNA [9] is reported as “very small quenching”.
For the compound `O=C(CCCC[C@@H]1SC[C@@H]2NC(=O)N[C@@H]21)N/N=C1\C(=O)c2cccnc2-c2ncccc21` [B, Biotin-Phen], the values for the IC50 in series [3] (Homo sapiens) and in series [4] (setting [12]) were 28.1 ± 2.77 µM and 21.5 ± 0.72 µM, respectively. In addition, in [6], the “cytotoxic activity of ligands (in words)” value is given as “did not show activity comparable to the complexes”.

As a reminder, the IC50 is the concentration needed to halve the response being measured.
